Key:
[1] = tested on: MDA-MB-231 xenograft; assay: Mouse xenograft study, MDA-MB-231 breast cancer; format: in vivo; conditions: MDA-MB-231 breast cancer xenograft, nude mice
[2] = tested on: BT474 xenograft; assay: Mouse xenograft study, BT474 breast cancer; format: in vivo, nude mice; conditions: BT474 breast cancer xenograft, nude mice
Experimental: (§1) Mouse Xenograft Studies: Xenograft studies adapted from a previous published protocol (Wu et al, Cancer Res. 2008 Oct. 15; 68(20):8393-9). Female BALB/c nude (nu/nu) mice (5-8 weeks) were obtained from Lasco (Industrial Park, Tai-Ping Area, Taichung City, Taiwan). The animals were maintained under specific pathogen-free conditions, and food and water were supplied ad libitum. Housing and all procedures involving animals were performed according to protocols approved by the IACUC in DCB. Nude mice were inoculated with 17-β-estradiol pellets 72 to 96 h before implantation of BT-474 cells. For subcutaneous implantation of BT-474 cells, cells (1×10^7 in matrix gel/animal) were injected subcutaneously into the right subaxillary region. Treatment started when average tumor volume reached about 200 mm^3; mice were treated (p.o., QD/28 cycles in total) with vehicle A (0.5% methylcellulose), or candidate compounds formulated in vehicle A (10-50 mg/kg body weight). Perpendicular diameter measurement of each tumor were made with digital calipers and the volume of the tumor calculated using formula (L×W×W)/2, in which L and W represent the length and the width, respectively. Body weights were measured three times weekly.
(§2) The in vivo effectiveness of contemplated compounds in the reduction of tumor volume in nude mice is readily apparent.
(§3) Development of resistance to treatment in advanced stage tumors is a well known phenomenon. Activity of select Hec1 inhibitor in such late stage tumors was determined by re-dosing of BT474 xenografted animals that had previously subjected to 35 days of treatment with 110095 (compound 27 of Table 1). Re-treatment with 110095 was starting on day 42 and continued for 21 days.

[3] = tested on: Huh-7 xenograft; assay: Mouse xenograft study, Huh-7 liver cancer; format: in vivo; conditions: Huh-7 liver cancer xenograft, nude mice
[4] = Body weight in mouse xenograft studies; format: in vivo, nude mice; conditions: xenograft studies FIG. 7A-7D, nude mice
Experimental: as §1, §2, §3

[5] = tested on: MDA-MB-468; assay: Antiproliferation assay (MTS), MDA-MB-468 cells; format: cell-based; conditions: Homo sapiens, MDA-MB-468, 96 h, Table 2, read-out: Antiproliferative IC50 MDA-MB-468
Method in brief: (§4)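 Cells seeded after overnight attachment were treated in triplicate for 96 h at 37 °C, 5% CO2, final DMSO below 1%. Viability read by MTS absorbance; concentration-response curves fitted by linear regression against DMSO controls.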

[6] = tested on: MDA-MB-231; assay: Antiproliferation assay (MTS), MDA-MB-231 cells; format: cell-based; conditions: Homo sapiens, MDA-MB-231, 96 h, read-out: Antiproliferative IC50 MDA-MB-231, Table 2
Method in brief: as §4

[7] = tested on: cancer cells; assay: DNA content analysis (propidium iodide, FACS); format: cell-based
Experimental: DNA Content Analysis: Cells were plated in a 10-cm culture plate and cultured overnight. Cells were incubated with the compound for the indicated time and collected at the indicated time points. Cells were fixed with 70% ethanol overnight, stained with propidium iodide solution (1.25 mg/ml propidium iodide (Sigma) and 20 μl/ml […] in PBS) and subjected to fluorescence activated cell sorting (FACS). The results were analyzed by Cell Quest software (BD Biosciences, San Jose Calif. 95131 USA).

IC50 [5] [nM] | IC50 [6] [nM] | Compound | xenograft tumor outgrowth [1] | xenograft tumor outgrowth [2] | xenograft tumor outgrowth [3] | body weight [4] | sub-G1 population (apoptotic cells) [7]
 |  | COc1ccc(Oc2cc(C)c(-c3csc(NC(=O)c4ccncc4)n3)c(C)c2)cc1 [II-95, N-(4-(4-(4-Methoxyphenoxy)-2,6-dimethylphenyl)thiazol-2-yl)isonicotinamide] | inhibition of xenograft tumor outgrowth | inhibition of xenograft tumor outgrowth | inhibition of xenograft tumor outgrowth | body weight remained constant | 
40 | 20 | COc1ccc(Oc2cc(C)c(-c3csc(NC(=O)c4ccnc(F)c4)n3)c(C)c2)cc1 [II-98, 2-Fluoro-N-(4-(4-(4-methoxyphenoxy)-2,6-dimethylphenyl)thiazol-2-yl)isonicotinamide] |  |  |  |  | increase in the sub-G1 population
